Results published in PubChem BioAssay AID1259407 (Chemical Carcinogenesis Research Information System (CCRIS), 2018).
Entries after “also recorded” stand apart in the source; their conditions may differ. Calls of active or inactive are those of the source. The rule behind the calls is not given here.

System: CCRIS mutagenicity, Ames/micronucleus/aberration tests
Assay: CCRIS mutagenicity studies
[1] = Test System: AMES SALMONELLA TYPHIMURIUM, Strain/Indicator: TA100, Metabolic Activation: NONE, Method: STANDARD PLATE
[2] = Test System: AMES SALMONELLA TYPHIMURIUM, Strain/Indicator: TA102, Metabolic Activation: NONE, Method: PREINCUBATION
[3] = Test System: AMES SALMONELLA TYPHIMURIUM, Strain/Indicator: TA98, Metabolic Activation: NONE, Method: PREINCUBATION
[4] = Test System: AMES SALMONELLA TYPHIMURIUM, Strain/Indicator: TA98, Metabolic Activation: RAT, LIVER, S-9, AROCLOR 1254, Method: PREINCUBATION
[5] = Test System: AMES SALMONELLA TYPHIMURIUM, Strain/Indicator: TA100, Metabolic Activation: NONE, Method: PREINCUBATION
[6] = Test System: AMES SALMONELLA TYPHIMURIUM, Strain/Indicator: TA100, Metabolic Activation: RAT, LIVER, S-9, AROCLOR 1254, Method: PREINCUBATION

In the case of `N/C(=N\O)c1ccc([N+](=O)[O-])o1`, the mutagenic call [1] was “active; positive”.
For `Cc1c(N)nc([C@H](CC(N)=O)NC[C@H](N)C(N)=O)nc1C(=O)N[C@H](C(=O)N[C@H](C)[C@@H](O)[C@H](C)C(=O)N[C@H](C(=O)NCCc1nc(-c2nc(C(=O)NCCCN(C)CCCN=C(N)CC3CCC(Cl)CC3)cs2)cs1)[C@@H](C)O)[C@@H](O[C@@H]1O[C@@H](CO)[C@@H](O)[C@H](O)[C@@H]1O[C@H]1O[C@H](CO)[C@@H](O)[C@H](OC(N)=O)[C@@H]1O)c1cnc[nH]1` (stereo not given in full), the mutagenic call (Test System: AMES SALMONELLA TYPHIMURIUM, Strain/Indicator: TA94, Metabolic Activation: NONE, Method: PREINCUBATION) was “active; positive” and the mutagenic call [2] was “active; positive”.
For `O=CN(O)c1ccc(Oc2ccc(Cl)cc2)cc1`, the mutagenic call [1] was “inactive; negative” and the mutagenic call (Test System: AMES SALMONELLA TYPHIMURIUM, Strain/Indicator: TA100, Metabolic Activation: RAT, LIVER, S-9, KANECLOR 500, Method: STANDARD PLATE) was “active; positive”.
For `CC(C)OC(=O)C=Cc1ccc([N+](=O)[O-])o1`, the mutagenic call [3] was “active; positive”.
For `COc1cc(C(C)=O)ccc1O`, the mutagenic call (Test System: AMES SALMONELLA TYPHIMURIUM, Strain/Indicator: TA97, Metabolic Activation: NONE, Method: PREINCUBATION) was “inactive; negative”, the mutagenic call (Test System: AMES SALMONELLA TYPHIMURIUM, Strain/Indicator: TA97, Metabolic Activation: RAT, LIVER, S-9, AROCLOR 1254, Method: PREINCUBATION) was “inactive; negative” and the mutagenic call [3] was “inactive; negative”. The mutagenic call [4] was “inactive; negative”, the mutagenic call [5] was “inactive; negative” and the mutagenic call [6] was “inactive; negative”. The mutagenic call [2] was “inactive; negative” and the mutagenic call (Test System: AMES SALMONELLA TYPHIMURIUM, Strain/Indicator: TA102, Metabolic Activation: RAT, LIVER, S-9, AROCLOR 1254, Method: PREINCUBATION) was “inactive; negative”.
`NS(=O)(=O)c1cc(C(=O)O)c(NCc2ccco2)cc1Cl` was tested, and the mutagenic call (End Point: IN VITRO CHROMOSOMAL ABERRATIONS, Test System: CHO CELLS, Metabolic Activation: NONE) was “active; positive; precipitation occurred at 3750 and 5000 ug/ml; also recorded: active; positive; precipitation occurred at 2513 ug/ml”, the mutagenic call (End Point: IN VITRO CHROMOSOMAL ABERRATIONS, Test System: CHO CELLS, Metabolic Activation: RAT, LIVER, S-9, AROCLOR 1254) was “active; positive; precipitation occurred at all doses” and the mutagenic call (Test System: AMES SALMONELLA TYPHIMURIUM, Strain/Indicator: TA98, Metabolic Activation: HAMSTER, LIVER, S-9, AROCLOR 1254 (10%), Method: PREINCUBATION) was “inactive; negative”. For the same molecule, the mutagenic call (Test System: AMES SALMONELLA TYPHIMURIUM, Strain/Indicator: TA98, Metabolic Activation: HAMSTER, LIVER, S-9, AROCLOR 1254, Method: PREINCUBATION) was “inactive; negative”, the mutagenic call [3] was “inactive; negative” and the mutagenic call (Test System: AMES SALMONELLA TYPHIMURIUM, Strain/Indicator: TA98, Metabolic Activation: RAT, LIVER, S-9, AROCLOR 1254 (10%), Method: PREINCUBATION) was “inactive; negative”. The mutagenic call [4] was “inactive; negative”, the mutagenic call (Test System: AMES SALMONELLA TYPHIMURIUM, Strain/Indicator: TA100, Metabolic Activation: HAMSTER, LIVER, S-9, AROCLOR 1254 (10%), Method: PREINCUBATION) was “inactive; negative” and the mutagenic call (Test System: AMES SALMONELLA TYPHIMURIUM, Strain/Indicator: TA100, Metabolic Activation: HAMSTER, LIVER, S-9, AROCLOR 1254, Method: PREINCUBATION) was “inactive; negative”. The mutagenic call [5] was “inactive; negative”, the mutagenic call (Test System: AMES SALMONELLA TYPHIMURIUM, Strain/Indicator: TA100, Metabolic Activation: RAT, LIVER, S-9, AROCLOR 1254 (10%), Method: PREINCUBATION) was “inactive; negative” and the mutagenic call [6] was “inactive; negative”. The mutagenic call (Test System: AMES SALMONELLA TYPHIMURIUM, Strain/Indicator: TA1535, Metabolic Activation: HAMSTER, LIVER, S-9, AROCLOR 1254 (10%), Method: PREINCUBATION) was “inactive; negative”, the mutagenic call (Test System: AMES SALMONELLA TYPHIMURIUM, Strain/Indicator: TA1535, Metabolic Activation: HAMSTER, LIVER, S-9, AROCLOR 1254, Method: PREINCUBATION) was “inactive; negative” and the mutagenic call (Test System: AMES SALMONELLA TYPHIMURIUM, Strain/Indicator: TA1535, Metabolic Activation: NONE, Method: PREINCUBATION) was “inactive; negative”. For the same molecule, the mutagenic call (Test System: AMES SALMONELLA TYPHIMURIUM, Strain/Indicator: TA1535, Metabolic Activation: RAT, LIVER, S-9, AROCLOR 1254 (10%), Method: PREINCUBATION) was “inactive; negative”, the mutagenic call (Test System: AMES SALMONELLA TYPHIMURIUM, Strain/Indicator: TA1535, Metabolic Activation: RAT, LIVER, S-9, AROCLOR 1254, Method: PREINCUBATION) was “inactive; negative” and the mutagenic call (Test System: AMES SALMONELLA TYPHIMURIUM, Strain/Indicator: TA1537, Metabolic Activation: HAMSTER, LIVER, S-9, AROCLOR 1254 (10%), Method: PREINCUBATION) was “inactive; negative”. The mutagenic call (Test System: AMES SALMONELLA TYPHIMURIUM, Strain/Indicator: TA1537, Metabolic Activation: HAMSTER, LIVER, S-9, AROCLOR 1254, Method: PREINCUBATION) was “inactive; negative”, the mutagenic call (Test System: AMES SALMONELLA TYPHIMURIUM, Strain/Indicator: TA1537, Metabolic Activation: NONE, Method: PREINCUBATION) was “inactive; negative” and the mutagenic call (Test System: AMES SALMONELLA TYPHIMURIUM, Strain/Indicator: TA1537, Metabolic Activation: RAT, LIVER, S-9, AROCLOR 1254 (10%), Method: PREINCUBATION) was “inactive; negative”. For the same molecule, the mutagenic call (Test System: AMES SALMONELLA TYPHIMURIUM, Strain/Indicator: TA1537, Metabolic Activation: RAT, LIVER, S-9, AROCLOR 1254, Method: PREINCUBATION) was “inactive; negative”, the mutagenic call (Test System: MOUSE LYMPHOMA, Strain/Indicator: L5178Y (TK+/TK-), Metabolic Activation: NONE, Method: SUSPENSION/PLATE) was “inactive; negative” and the mutagenic call (Test System: MOUSE LYMPHOMA, Strain/Indicator: L5178Y (TK+/TK-), Metabolic Activation: RAT, LIVER, S-9, AROCLOR 1254, Method: SUSPENSION/PLATE) was “active; positive”.
`CC/C=C\C=C\CCCCCCOC(C)=O` was tested, and the mutagenic call (Test System: AMES SALMONELLA TYPHIMURIUM, Strain/Indicator: TA98, Metabolic Activation: NONE, Method: STANDARD PLATE) was “inactive; negative”, the mutagenic call (Test System: AMES SALMONELLA TYPHIMURIUM, Strain/Indicator: TA98, Metabolic Activation: RAT, LIVER, S-9, Method: STANDARD PLATE) was “inactive; negative” and the mutagenic call [1] was “inactive; negative”. For the same molecule, the mutagenic call (Test System: AMES SALMONELLA TYPHIMURIUM, Strain/Indicator: TA100, Metabolic Activation: RAT, LIVER, S-9, Method: STANDARD PLATE) was “inactive; negative”, the mutagenic call (Test System: AMES SALMONELLA TYPHIMURIUM, Strain/Indicator: TA102, Metabolic Activation: NONE, Method: STANDARD PLATE) was “inactive; negative” and the mutagenic call (Test System: AMES SALMONELLA TYPHIMURIUM, Strain/Indicator: TA102, Metabolic Activation: RAT, LIVER, S-9, Method: STANDARD PLATE) was “inactive; negative”.
`Nc1nc2c([nH]c(=O)n2[C@H]2C[C@H](O)[C@@H](CO)O2)c(=O)[nH]1` was tested, and the mutagenic call [5] was “inactive; negative”.
